Assay results taken from patent US7674807B2, “Heterocycle-substituted n-phenyl-phthalamide derivatives, related compounds and their use as insecticides” (Bayer CropScience AG, priority 2004, dated 2010).

Experiments:
[1] = test system: larva of Cnaphalocrocis medinalis Guenee; assay: Test against larva of Cnaphalocrocis medinalis Guenee (sprayed paddy rice foliage); format: in vivo; conditions: 20 ppm concentration of the active component; second instar larvae; counted after 7 days; 25° C.
Summary of the method: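 Potted rice (Tamanishiki) sprayed with aqueous dilutions of compound at the prescribed concentration; air-dried leaf pieces placed in dishes with five 2nd-instar larvae at 25° C, fresh treated foliage added at days 2 and 4. Mortality counted at day 7, averaged over 2 dishes.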

[2] = test system: Myzus persicae resistant to organophosphorous agents and carbamates; assay: Test against Myzus persicae resistant to organophosphorous agents and carbamates (spray on eggplant seedlings); format: in vivo; conditions: 100 ppm concentration of the effective component; 7 days after spraying; green house of 28° C.
Method: About 30 bred Myzus persicae resistant to organophosphorous agents and carbamates were inoculated per 1 seedling of eggplant planted in a vinyl pot of 6 cm diameter. One day after the inoculation, a sufficient amount of a diluted aqueous solution of a prescribed concentration of an active compound prepared as mentioned above, was sprayed by using a spray gun. After spraying it was placed in a green house of 28° C. and the rate of death was calculated 7 days after the spraying. Test was repeated twice.

[3] = test system: larva of Spodoptera litura; assay: Test against larva of Spodoptera litura (leaf dip, sweet potato leaves); format: in vivo; conditions: 20 ppm concentration of the active component; third instar larvae; counted after 7 days; 25° C.
Summary of the method: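 Sweet potato leaves were dipped in emulsified compound diluted with water, air-dried, and given to 10 third-instar larvae per dish at 25° C, with fresh leaves added on days 2 and 4. Mortality was counted after 7 days and averaged over 2 dishes.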

| SMILES | controlling effect, rate of death [1] [%] | controlling effect, rate of death [2] [%] | controlling effect, rate of death [3] [%] | melting point [°C] |
| --- | --- | --- | --- | --- |
| CC[S+]([O-])CC(C)NC(=O)c1c(Cl)cccc1C(=O)Nc1ccc(Cn2nc(C(F)(F)F)nc2C(F)(F)F)cc1C (stereo not drawn) [compound 147] | 100 | 100 | 100 | – |
| Cc1cc(C(C)n2nc(C(F)(F)F)nc2C(F)(F)F)ccc1NC(=O)c1cccc(Cl)c1C(=O)N[C@@H](C)C[S+](C)[O-] (stereo partly drawn) [compound 569] | – | 100 | – | – |
| Cc1cc(Cn2nc(C(F)C(F)(F)F)nc2C(F)(F)F)ccc1NC(=O)c1cccc(Cl)c1C(=O)N[C@@H](C)C[S+](C)[O-] (stereo partly drawn) [compound 797] | – | 100 | – | – |
| Cc1cc(Cn2cc(C(F)(F)C(F)(F)F)c(C(F)(F)C(F)(F)C(F)(F)F)n2)ccc1NC(=O)c1cccc(I)c1C(=O)N[C@@H](C)C[S+](C)[O-] (stereo partly drawn) [compound 920] | 100 | 100 | 100 | – |
| CSCC(C)(C)NC(=O)c1c(Br)cccc1C(=O)Nc1ccc(Cn2nc(C(F)(F)F)nc2C(F)(F)F)cc1C [compound 174] | 100 | 100 | 100 | – |
| CSCC(C)NC(=O)c1c(I)cccc1C(=O)Nc1ccc(Cn2nc(C(F)(F)F)nc2C(F)(F)F)cc1C (stereo not drawn) [compound 215] | 100 | 100 | 100 | – |
| Cc1cc(Cn2nc(C(F)(F)F)nc2C(F)(F)F)ccc1NC(=O)c1cccc(Br)c1C(=O)NC(C)C[S+](C)[O-] (stereo not drawn) [compound 180] | 100 | 100 | 100 | – |
| CCSCC(C)NC(=O)c1c(Cl)cccc1C(=O)Nc1ccc(Cn2nc(C(F)(F)F)nc2C(F)(F)F)cc1C (stereo not drawn) [compound 146] | 100 | 100 | 100 | – |
| CCSCC(C)NC(=O)c1c(I)cccc1C(=O)Nc1ccc(Cn2nc(C(F)(F)F)nc2C(F)(F)F)cc1C (stereo not drawn) [compound 220] | 100 | 100 | 100 | – |
| Cc1cc(Cn2nc(C(F)(F)F)nc2C(F)F)ccc1NC(=O)c1cccc(I)c1C(=O)NC(C)CS(C)(=O)=O (stereo not drawn) [compound 243] | – | 100 | – | – |
| CCS(=O)(=O)CC(C)NC(=O)c1c(Cl)cccc1C(=O)Nc1ccc(Cn2nc(C(F)(F)F)nc2C(F)(F)F)cc1C (stereo not drawn) [compound 148] | 100 | 100 | 100 | – |
| CSCC(C)(C)NC(=O)c1c(I)cccc1C(=O)Nc1ccc(C(C)n2ccc(C(F)(F)F)n2)cc1C (stereo not drawn) [compound 558, N^2-(1,1-dimethyl-2-methylsulfanyl-ethyl)-3-iodo-N^1-{2-methyl-4-[1-(3-trifluoromethyl-1H-pyrazol-1-yl)-ethyl]-phenyl}-phthalamide] | – | – | – | 79 to 86 |
| CSCC(C)NC(=O)c1c(Br)cccc1C(=O)Nc1ccc(Cn2nc(C(F)(F)F)nc2C(F)(F)F)cc1C (stereo not drawn) [compound 178] | – | 100 | – | – |
| Cc1cc(Cn2nc(C(F)(F)F)nc2C(F)(F)F)ccc1NC(=O)c1cccc(I)c1C(=O)NC(C)CS(C)(=O)=O (stereo not drawn) [compound 218] | 100 | 100 | 100 | – |
| Cc1cc(Cn2nc(C(F)(F)F)nc2C(F)(F)F)ccc1NC(=O)c1cccc(I)c1C(=O)NC(C)(C)CS(C)(=O)=O [compound 213] | 100 | 100 | 100 | – |
| Cc1cc(Cn2nc(C(F)(F)F)nc2C(F)(F)F)ccc1NC(=O)c1cccc(Br)c1C(=O)NC(C)CS(C)(=O)=O (stereo not drawn) [compound 181] | 100 | 100 | 100 | – |
| CSCC(C)NC(=O)c1c(I)cccc1C(=O)Nc1ccc(Cn2nc(C(F)(F)F)nc2C(F)(F)F)cc1C (stereo not drawn) [compound 214] | 100 | 100 | 100 | – |
| Cc1cc(C(C)n2nc(C(F)(F)F)nc2C(F)(F)F)ccc1NC(=O)c1cccc(I)c1C(=O)N[C@@H](C)C[S+](C)[O-] (stereo partly drawn) [compound 572] | 100 | 100 | 100 | – |
| CSCC(C)NC(=O)c1c(I)cccc1C(=O)Nc1ccc(Cn2nc(C(F)(F)C(F)(F)F)nc2C(F)(F)F)cc1C (stereo not drawn) [compound 226] | 100 | 100 | 100 | – |
| CSCC(C)NC(=O)c1c(Cl)cccc1C(=O)Nc1ccc(Cn2nc(C(F)(F)F)nc2C(F)(F)F)cc1C (stereo not drawn) [compound 141] | 100 | 100 | 100 | – |
| Cc1cc(Cn2nc(C(F)(F)F)nc2C(F)(F)F)ccc1NC(=O)c1cccc(Cl)c1C(=O)NC(C)CS(C)(=O)=O (stereo not drawn) [compound 144] | 100 | 100 | 100 | – |
| Cc1cc(C(C)n2nc(C(F)(F)C(F)(F)F)nc2C(F)(F)F)ccc1NC(=O)c1cccc(Cl)c1C(=O)N[C@@H](C)C[S+](C)[O-] (stereo partly drawn) [compound 579] | 100 | 100 | 100 | – |
| Cc1cc(C(C)n2nc(C(F)(F)F)nc2C(F)(F)F)ccc1NC(=O)c1cccc(Cl)c1C(=O)N[C@@H](C)CS(C)(=O)=O (stereo partly drawn) [compound 570] | 100 | 100 | 100 | – |
| CCS(=O)(=O)CC(C)NC(=O)c1c(I)cccc1C(=O)Nc1ccc(Cn2nc(C(F)(F)F)nc2C(F)(F)F)cc1C (stereo not drawn) [compound 222] | 100 | 100 | 100 | – |
| CSCC(C)NC(=O)c1c(Cl)cccc1C(=O)Nc1ccc(Cn2nc(C(F)(F)F)nc2C(F)(F)F)cc1C (stereo not drawn) [compound 140] | 100 | 100 | 100 | – |
| CSCC(C)(C)NC(=O)c1c(I)cccc1C(=O)Nc1ccc(Cn2nc(C(F)(F)F)nc2C(F)(F)F)cc1C [compound 211] | 100 | 100 | 100 | – |
| Cc1cc(Cn2nc(C(F)(F)F)nc2C(F)(F)F)ccc1NC(=O)c1cccc(Br)c1C(=O)NC(C)(C)CS(C)(=O)=O [compound 176] | 100 | 100 | 100 | – |
| CSCC(C)NC(=O)c1c(I)cccc1C(=O)Nc1ccc(Cn2nc(C(F)(F)F)nc2C(F)F)cc1C (stereo not drawn) [compound 239] | – | 100 | – | – |
